Laboratory results from patent US9517989B2, “2-cycloalkyl resorcinol cannabinergic ligands” (priority 2012, dated 2016).

Legend:
CB1 [1] = molecular target: T1, CB1 (Rattus norvegicus, UniProt P20272); experiment: CB1 receptor binding affinity (Ki)
Method: Some disclosed compounds were tested for CB1 and CB2 receptor binding affinity (Tables 1, 2, 3, 4, 5, 6). As used herein “binding affinity” is represented by the Ki value. The Ki value is the affinity constant and describes the affinity of the compound for the receptor. […] A detailed description of the methods used to test “binding affinity” of compounds is given in Makriyannis, et al., US 2007, 0135388 and in Papahatjis, et al. J. Med. Chem. (2007) 4048, the content of each of which is hereby incorporated by reference.

CB2 receptor = CB2 receptor (UniProt P47936); experiment: CB2 receptor binding affinity (Ki); details: read-out: CB2 receptor Ki
Method: Some disclosed compounds were tested for CB1 and CB2 receptor binding affinity (Tables 1, 2, 3, 4, 5, 6). As used herein “binding affinity” is represented by the Ki value. The Ki value is the affinity constant and describes the affinity of the compound for the receptor. The lower the Ki value, the higher the affinity of the compound for the receptor. A detailed description of the methods used to test “binding affinity” of compounds is given in Makriyannis, et al., US 2007, 0135388 and in Papahatjis, et al. J. Med. Chem. (2007) 4048, the content of each of which is hereby incorporated by reference.

CB1 [2] = molecular target: T1, CB1; experiment: cyclic adenosine monophosphate (cAMP) assay at CB1; type: cell-based; details: for Emax: read-out: % Efficacy; for EC50: read-out: Functional Potency (EC50)
Method: Functional characterization of some of the disclosed compounds was performed by using the cyclic adenosine monophosphate (cAMP) assay. The functional potency of the compound is represented by the EC50 value. The lower the EC50 value, the higher the functional potency. A detailed description of the cyclic adenosine monophosphate (cAMP) assay is given in Nikas et al. J. Med. Chem. (2010) 6996.

T1 sequence (P20272 whole entry): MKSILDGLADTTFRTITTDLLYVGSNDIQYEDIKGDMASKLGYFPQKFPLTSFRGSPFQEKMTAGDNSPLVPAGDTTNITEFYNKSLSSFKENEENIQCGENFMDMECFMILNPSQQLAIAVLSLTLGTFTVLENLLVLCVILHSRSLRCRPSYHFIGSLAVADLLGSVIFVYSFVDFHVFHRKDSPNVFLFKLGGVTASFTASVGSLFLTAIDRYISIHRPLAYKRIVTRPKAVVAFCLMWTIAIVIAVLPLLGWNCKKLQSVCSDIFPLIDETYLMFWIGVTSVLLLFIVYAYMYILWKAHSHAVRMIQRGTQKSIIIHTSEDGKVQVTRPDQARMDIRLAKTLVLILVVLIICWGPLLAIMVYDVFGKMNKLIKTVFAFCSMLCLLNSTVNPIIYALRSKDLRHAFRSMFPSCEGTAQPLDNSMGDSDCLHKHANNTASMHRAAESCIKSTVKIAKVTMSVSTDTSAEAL

SMILES	Ki (CB1 [1]) [nM]	Ki (CB2 receptor) [nM]	Functional Activity (CB1 [2])	Emax (CB1 [2]) [%]	EC50 (CB1 [2]) [nM]
C=C(C)[C@H]1CCC(CO)=C[C@@H]1c1c(O)cc(C2(CCCCCC)CCCC2)cc1O [Compound 4.4, 2-[(1S,6S)-3-(Hydroxymethyl)-6-(1-methylethenyl)-2-cyclohexen-1-yl]-5-(1-hexyl-cyclopentyl)resorcinol]	78	16	Agonist at CB1	81	17
C=C(C)[C@H]1CCC(CO)=C[C@@H]1c1c(O)cc(C2(CCCCCC)SCCS2)cc1O [Compound 4.6, 2-[(1S,6S)-3-(Hydroxymethyl)-6-(1-methylethenyl)-2-cyclohexen-1-yl]-5-(2-hexyl-1,3-dithiolane-2-yl)resorcinol]	71	28	Agonist at CB1	84	267
C=C(C)[C@H]1CCC(CO)=C[C@@H]1c1c(O)cc(C2(CCCCCC#N)CCC2)cc1O [Compound 34, 2-[(1S,6S)-3-(Hydroxymethyl)-6-(1-methylethenyl)-2-cyclohexen-1-yl]-5-[(5-cyanopentyl)cyclobutyl]resorcinol]	20	5.5	Agonist at CB1	83	3.2
CCCC/C=C\C1(c2cc(O)c([C@H]3C=C(C)[C@H]4C[C@@H]3C4(C)C)c(O)c2)CCCC1 [Compound 40.5, (+)-2-[(1R,4S,5S)-2,6,6-trimethylbicylco[3.1.1]hept-2-en-4-yl]-5-[1-(1,2-cis-hexen-1-yl)-cyclopent-1-yl]resorcinol]	13.4	6.6			
CC1=C[C@H](c2c(O)cc(C3(CCCCCBr)CCCC3)cc2O)[C@@H]2C[C@H]1C2(C)C [Compound 40.7, (+)-2-[(1R,4S,5S)-2,6,6-trimethylbicylco[3.1.1]hept-2-en-4-yl]-5-[(5-bromopentyl)cyclopentyl]resorcinol]	6.4	4.7			
CC1=C[C@H](c2c(O)cc(C3(CCCCCBr)CCC3)cc2O)[C@@H]2C[C@H]1C2(C)C [Compound 40.8, (+)-2-[(1R,4S,5S)-2,6,6-trimethylbicylco[3.1.1]hept-2-en-4-yl]-5-[(5-bromopentyl)cyclobutyl]resorcinol]	1	2.1			
CC1=C[C@H](c2c(O)cc(C3(CCCCBr)CCC3)cc2O)[C@@H]2C[C@H]1C2(C)C [Compound 40.15, (+)-2-[(1R,4S,5S)-2,6,6-trimethylbicylco[3.1.1]hept-2-en-4-yl]-5-[(5-bromobutyl)cyclobutyl]resorcinol]	11	1.9			
CCCCCc1cc(O)c([C@@H]2C=C(C)[C@@H]3C[C@H]2C3(C)C)c(O)c1 [Compound 43.1, (−)-2-[(1S,4R,5R)-2,6,6-trimethylbicyclo[3.1.1]hept-2-en-4-yl]-5-pentyl-resorcinol, reference compound]	837	565			
CCCC/C=C\C1(c2cc(O)c([C@@H]3C=C(C)[C@@H]4C[C@H]3C4(C)C)c(O)c2)CCCC1 [Compound 43.5, (−)-2-[(1S,4R,5R)-2,6,6-trimethylbicyclo[3.1.1]hept-2-en-4-yl]-5-[1-(1,2-cis-hexen-1-yl)-cycolpentyl-1-yl]resorcinol]	45	29			
C=C(C)[C@@H]1CCC(=O)C[C@H]1c1c(O)cc(C23CC4CC(CC(C4)C2)C3)cc1O [Compound 48.2, (3R,4R)-3-[4-(1-Adamantyl)-2,6-dihydroxyphenyl]-4-isopropenylcyclohexan-1-one]	694	> 1000			
C=C(C)[C@@H]1CCC(=COC)C[C@H]1c1c(O)cc(C23CC4CC(CC(C4)C2)C3)cc1O [Compound 49.2, (3R,4R)-3-[4-(1-Adamantyl)-2,6-dihydroxyphenyl]-4-isopropenyl-1-(methoxymethylene)cyclohexane]	1760	375			
C=C(C)[C@@H]1CC[C@@H](CO)C[C@H]1c1c(O)cc(C23CC4CC(CC(C4)C2)C3)cc1O [Compound 51.2, (1R,3R,4R)-3-[4-(1-Adamantyl)-2,6-dihydroxyphenyl]-4-isopropenyl-1-(hydroxymethyl)cyclohexane]	910	16			
C=C(C=O)[C@@H]1CC[C@@H](CO)C[C@H]1c1c(O)cc(C23CC4CC(CC(C4)C2)C3)cc1O [Compound 53.2, (1R,3R,4R)-3-[4-(1-Adamantyl)-2,6-dihydroxyphenyl]-4-[2′-(propenalyl)]-1-(hydroxymethyl)cyclohexane]	1400	20			
C=C(CO)[C@@H]1CC[C@@H](CO)C[C@H]1c1c(O)cc(C23CC4CC(CC(C4)C2)C3)cc1O [Compound 54.2, (1R,3R,4R)-3-[4-(1-Adamantyl)-2,6-dihydroxyphenyl]-4-[2′-(3′-hydroxyprop-1′-enyl)]-1-(hydroxymethyl)cyclohexane]	4140	185			
C=C(C)[C@@H]1CC[C@@H](O)C[C@H]1c1c(O)cc(C23CC4CC(CC(C4)C2)C3)cc1O [Compound 55, (1R,3R,4R)-3-[4-(1-Adamantyl)-2,6-dihydroxyphenyl]-4-isopropenyl-1-hydroxycyclohexane]	2400	343			
CC(C)[C@H]1CC[C@@H](CO)C[C@H]1c1c(O)cc(C23CC4CC(CC(C4)C2)C3)cc1O [Compound 56, (1R,3R,4R)-3-[4-(1-Adamantyl)-2,6-dihydroxyphenyl]-4-isopropyl-1-(hydroxymethyl)cyclohexane]	998	23			
C=C(C)[C@@H]1CC[C@@H](C(=O)O)C[C@H]1c1c(O)cc(C(C)(C)CCCCCC)cc1O [Compound 58.2, (1R,3R,4R)-3-[4-(1′,1′-Dimethylheptyl)-2,6-dihydroxyphenyl]-4-isopropenyl-1-carboxylylcyclohexane]	> 1000	> 1000			
C=C(C)[C@@H]1CC[C@@H](C(N)=O)C[C@H]1c1c(O)cc(C(C)(C)CCCCCC)cc1O [Compound 59.1, (1R,3R,4R)-3-[4-(1′,1′-Dimethylheptyl)-2,6-dihydroxyphenyl]-4-isopropenyl-1-carboxamidocyclohexane]	> 1000	> 1000			
C=C(C)[C@@H]1CCC(=O)C[C@H]1c1c(O)cc(C(C)(C)CCCCCC)cc1O [Compound 61.2, (3R,4R)-3-[4-(1′,1′-Dimethylheptyl)-2,6-dihydroxyphenyl]-4-isopropenylcyclohexan-1-one]	> 1000	37			
C=C(C)[C@@H]1CC[C@@H](N2CCOCC2)C[C@H]1c1c(O)cc(C(C)(C)CCCCCC)cc1O [Compound 62, (1R,3R,4R)-3-[4-(1′,1′-Dimethylheptyl)-2,6-dihydroxyphenyl]-4-isopropenyl-1-morpholinylcyclohexane]	69	14			
C=C(C)[C@H]1CCC(=O)C[C@@H]1c1c(O)cc(C(C)(C)CCCCCC)cc1O [Compound 66.2, (3S,4S)-3-[4-(1′,1′-Dimethylheptyl)-2,6-dihydroxyphenyl]-4-isopropenylcyclohexan-1-one]	30 to 60	41			
C=C(C)C1CCC(O)CC1c1c(O)cc(C(C)(C)CCCCCC)cc1O [Compound 68, (1R,3R,4R)-3-[4-(1′,1′-Dimethylheptyl)-2,6-dihydroxyphenyl]-4-isopropenyl-1-hydroxycyclohexane]	> 1000	33			
